Results from publication PMC9694926, “Novel Uracil-Based Inhibitors of Acetylcholinesterase with Potency for Treating Memory Impairment in an Animal Model of Alzheimer’s Disease” (Molecules, 2022).
Counter-ions that a name gives are not always drawn. Like-named read-outs stand apart in the source and are kept apart here.

Assays:
[1] = target: T1, hBChE (Homo sapiens, UniProt P06276); details: cited from earlier work
T1 construct: hBChE from blood plasma; purchased Sigma-Aldrich; host or cells: human blood plasma
T1 sequence (P06276 29-602): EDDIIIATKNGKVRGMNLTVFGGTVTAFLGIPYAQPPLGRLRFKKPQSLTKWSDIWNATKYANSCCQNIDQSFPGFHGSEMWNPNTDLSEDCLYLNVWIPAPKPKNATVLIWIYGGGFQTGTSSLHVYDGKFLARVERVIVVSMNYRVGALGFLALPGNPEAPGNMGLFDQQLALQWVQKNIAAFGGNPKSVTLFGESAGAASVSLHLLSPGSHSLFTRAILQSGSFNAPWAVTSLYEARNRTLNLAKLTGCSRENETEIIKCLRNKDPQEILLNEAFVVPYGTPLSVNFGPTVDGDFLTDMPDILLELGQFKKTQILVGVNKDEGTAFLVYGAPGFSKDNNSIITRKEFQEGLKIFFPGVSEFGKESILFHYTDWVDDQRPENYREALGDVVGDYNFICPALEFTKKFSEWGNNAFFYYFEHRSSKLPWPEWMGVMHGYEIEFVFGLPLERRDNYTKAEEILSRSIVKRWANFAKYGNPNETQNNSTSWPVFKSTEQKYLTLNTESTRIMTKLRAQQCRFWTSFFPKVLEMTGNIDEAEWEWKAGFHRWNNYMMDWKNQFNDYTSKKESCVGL

[2] = test system: CD1 mice; details: i.p. injection, cited from earlier work
[3] = target: T2, hAChE (Homo sapiens, UniProt P22303); details: cited from earlier work; for IC50: human AChE
T2 construct: purchased Sigma-Aldrich
T2 sequence (P22303 32-614): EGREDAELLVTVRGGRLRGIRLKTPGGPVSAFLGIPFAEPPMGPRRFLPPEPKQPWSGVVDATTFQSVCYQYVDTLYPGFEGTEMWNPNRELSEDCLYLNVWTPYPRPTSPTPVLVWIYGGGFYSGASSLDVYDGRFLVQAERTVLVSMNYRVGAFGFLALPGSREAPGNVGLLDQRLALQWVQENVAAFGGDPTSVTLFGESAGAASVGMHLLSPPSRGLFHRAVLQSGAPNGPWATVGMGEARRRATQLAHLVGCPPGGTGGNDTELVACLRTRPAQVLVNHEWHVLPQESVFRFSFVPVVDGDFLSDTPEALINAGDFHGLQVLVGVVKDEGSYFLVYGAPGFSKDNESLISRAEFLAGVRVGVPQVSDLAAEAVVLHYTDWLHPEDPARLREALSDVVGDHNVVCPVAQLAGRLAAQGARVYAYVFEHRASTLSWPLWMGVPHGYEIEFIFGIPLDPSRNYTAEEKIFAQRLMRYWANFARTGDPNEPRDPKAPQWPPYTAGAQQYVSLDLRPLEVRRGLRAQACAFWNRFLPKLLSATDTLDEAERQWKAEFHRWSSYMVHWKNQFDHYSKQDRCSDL

[4] = target: T1, hBChE; assay: biochemical; details: butyrylthiocholine 1 mM, mean of three independent measurements
Protocol: (§1) The inhibitory potency of compounds against hAChE and hBChE was studied using Ellman’s method. Acetylthiocholine iodide (ATC), butyrylthiocholine iodide (BTC), recombinant hAChE, hBChE from blood plasma, and 5,5′-dithio-bis-(2-nitrobenzoic) acid (DTNB) were purchased from Sigma-Aldrich (Sigma-Aldrich, St. Louis, MO, USA). Stock solutions of compounds (0.01 M) were prepared using ethanol or water. In the case of compounds soluble in ethanol, the final concentration of ethanol in the cuvette was 0.1% vol. […] The enzyme-catalyzed reaction of hydrolysis was carried out in 0.1 M phosphate buffer at pH 8.0 containing 0.25 units of hAChE or hBChE and 1 mM ATC or BTC as substrates. The tested compounds were pre-incubated with the enzyme for 5 min at 25 °C prior to the addition of the substrate and the commencement of hydrolysis kinetics recording. Experiments were performed in triplicate. […] The sample without substrate was used as a blank. The sample without inhibitor was used as a control (in a solution of 0.1% vol. ethanol in the case of compounds soluble in ethanol). Percentage of AChE/BChE inhibition was determined by comparison of rates of reaction of test samples relative to the control sample. The percentage of inhibition as a function of compound concentration was plotted using OriginPro 8.5 software (OriginLab Corporation, Northampton, MA, USA).

[5] = Acute toxicity (LD50), intraperitoneal injection; assay type: in vivo; details: CD1, mouse, in vivo, ip; mice, i.p. injection
Protocol: (§2) All experiments involving animals were performed in accordance with the guidelines set out by the European Union Council Directive 2010/63/EU; the experimental protocols were approved by the Animal Care and Use Committee of the Federal Research Center “Kazan Scientific Center of the Russian Academy of Sciences”. Toxicological experiments were performed using intraperitoneal injection of the various compounds in CD1 mice weighing 20–25 g. Mice were maintained on a 12 h light/dark cycle (light from 7:00 a.m. to 7:00 p.m.) at 20−22 °C and 60−70% relative humidity. Five different doses (determined during preliminary tests) were used with six animals per dose. Animals were observed 14 days after injection, and symptoms of intoxication were recorded. […] LD50 was determined by the method of Weiss. Stock solutions of compounds were prepared in ethanol or water. Compounds were administered intraperitoneally in sterile physiological saline. The concentration of ethanol in physiological saline was 5% vol.

[6] = target: T2, hAChE; assay: biochemical; assay type: biochemical; details: for AChE Selectivity: (IC50 BChE)/(IC50 AChE); for IC50: human AChE, acetylthiocholine 1 mM, mean of three independent measurements
Protocol: as §1

[7] = test system: CD1 mice; assay: Acute toxicity (LD50), intraperitoneal injection; assay type: in vivo; details: i.p. injection
Protocol: as §2

[8] = Solubility in water
[9] = test system: APP/PS1 mice; details: 1 mg/kg p.o. daily
Excerpt: Wild-type and APP/PS1 saline treated mice were employed as negative and positive controls, respectively. The behavior of mice in the T-maze was observed within 18 days (Figure 7A).
Mice were assigned to four groups (n = 8–10). […] APP/PS1 mice and their wild-type non-transgenic littermates that received saline were used as positive and negative controls.
A reward alternation task was used to assess spatial memory performance in T-maze (OpenScience, Moscow, Russia) as previously described [32, 33]. Briefly, prior to commencing T-maze testing, mice were placed on a food-deprivation schedule over 3 days. On the fourth day, mice were placed in the start arm of the T-maze and made it possible to move freely. Over the next 14 days of testing, mice were given 6 pairs of training trials. In the first trial of each pair (forced trial), one of the goal arm guillotine doors was closed and the mouse was constrained to selecting the opposite arm. The mouse was returned to the start box 15–20 s after consuming the reward (diluted sweetened condensed milk). In the second (free choice) trial, both goal arm doors were opened, the arm opposite the one selected in the forced trial was baited. […] The percentages of correct choices and mice reaching the criterion of learning were evaluated along with the dynamic of reaching the criterion of learning.

[10] = test system: scopolamine-induced amnesia in mice; assay: T-maze spatial memory test in scopolamine-induced amnesia model; assay type: in vivo, CD1 mice; details: scopolamine 2 mg/kg i.p.; 1 mg/kg p.o. daily
Protocol: During the first set of in vivo experiments, the ability of compound 2c to reverse the scopolamine-induced amnesia in mice was studied by means of behavioral testing in a T-maze. The percentages of correct choices and mice reaching the criterion of learning were evaluated along with the dynamic of reaching the criterion of learning. Amnesia was caused by intraperitoneal administration of scopolamine (2 mg/kg) 40 min prior to testing. […]. The control group of mice was treated with saline. The behavior of mice was observed within 18 days (Figure 6A).
Scopolamine, representing a muscarinic acetylcholine receptor antagonist, produces a transient receptor blockade and cognitive deficits, which can be considered as a model of AD [28]. CD1 mice were randomly divided into 5 groups (n = 8–10): control group of mice treated with saline; mice injected with a water solution of scopolamine (2 mg/kg, i.p.) at 40 min before testing; […]. Drugs were administered over 18 days.
A reward alternation task was used to assess spatial memory performance in T-maze (OpenScience, Moscow, Russia) as previously described. Briefly, prior to commencing T-maze testing, mice were placed on a food-deprivation schedule over 3 days. […] The percentages of correct choices and mice reaching the criterion of learning were evaluated along with the dynamic of reaching the criterion of learning.

Row | SMILES | IC50 [4] | LD50 at 14 days [5] | AChE Selectivity [6] | IC50 [6] | also measured
1 | CCN(CCCCCn1c(C)cc(=O)n(CCCCCN(CC)Cc2ccccc2C(F)(F)F)c1=O)Cc1ccccc1C(F)(F)F [1b] | – | – | – | – | IC50 ([1]; ref [12]): 20 µM; LD50 ([2]; ref [12]): 49 mg/kg; IC50 ([3]; ref [12]): 0.0056 ± 0.0007 µM
2 | CCN(CCCCCn1c(C)cc(=O)n(CCCCCN(CC)Cc2ccccc2[N+](=O)[O-])c1=O)Cc1ccccc1[N+](=O)[O-] [1a] | – | – | – | – | IC50 ([1]; ref [12]): 35 µM; LD50 ([2]; ref [12]): 51 mg/kg; AChE Selectivity ([3]; (IC50 BChE)/(IC50 AChE), ref [12]): 10,000; IC50 ([3]; ref [12]): 0.0035 ± 0.0003 µM
3 | CCN(CCCCCCn1c(C)cc(=O)n(CCCCCCN(CC)Cc2ccc(C(=O)OC)cc2)c1=O)Cc1ccc(C(=O)OC)cc1 [3c, 1,3-Bis[6-(para-methoxycarbonylbenzylethylamino)hexyl]-6-methyluracil] | 59.9 µM | 87 mg/kg | 2218 | 0.027 ± 0.007 µM | selectivity against AChE lower compared to compound 2c ([6]; AChE vs BChE): more than 15 times
4 | CCN(CCCCCn1c(C)cc(=O)n(CCCCCN(CC)Cc2ccc(C(=O)[O-])cc2)c1=O)Cc1ccc(C(=O)[O-])cc1.[Na+].[Na+] [3d, 1,3-Bis[5-((para-methylbenzoate)ethylamino)pentyl]-6-methyluracil disodium salt] | > 100000 µM | 168 mg/kg | – | 0.0046 ± 0.0004 µM | –
5 | CCN(CCCCCn1c(C)cc(=O)n(CCCCCN(CC)Cc2cccc(C(=O)OC)c2)c1=O)Cc1cccc(C(=O)OC)c1 [compound 9] | – | – | – | – | LD50 [7]: 96 mg/kg; solubility in water [8]: water-soluble
6 | CCN(CCCCCn1c(=O)c2ccccc2n(CCCCCN(CC)Cc2cccc(C(=O)OC)c2)c1=O)Cc1cccc(C(=O)OC)c1 [4b] | 2.38 ± 0.49 µM | 93 mg/kg | 8.2 | 0.29 ± 0.042 µM | –
7 | CCN(CCCCn1c(=O)c2ccccc2n(CCCCN(CC)Cc2cccc(C(=O)OC)c2)c1=O)Cc1cccc(C(=O)OC)c1 [4a, 1,3-Bis[4-(meta-methoxycarbonylbenzylethylamino)butyl]-quinazoline-2,4-dione] | 3.16 ± 0.39 µM | 120 mg/kg | 7 | 0.46 ± 0.095 µM | –
8 | CCN(CCCCCn1c(C)cc(=O)n(CCCCCN(CC)Cc2cccc(C(=O)[O-])c2)c1=O)Cc1cccc(C(=O)[O-])c1.[Na+].[Na+] [2e, 1,3-Bis[5-((meta-methylbenzoate)ethylamino)pentyl]-6-methyluracil disodium salt] | ~21000 µM | 170 mg/kg | 1.6 × 10^6 | 0.013 ± 0.001 µM | –
9 | CCN(CCCCCCn1c(C)cc(=O)n(CCCCCCN(CC)Cc2cccc(C(=O)OC)c2)c1=O)Cc1cccc(C(=O)OC)c1 [2d, 1,3-Bis[6-(meta-methoxycarbonylbenzylethylamino)hexyl]-6-methyluracil] | 1.34 ± 0.33 µM | 47.5 mg/kg | 285 | 0.0047 ± 0.00017 µM | –
10 | CCN(CCCCn1c(C)cc(=O)n(CCCCN(CC)Cc2cccc(C(=O)OC)c2)c1=O)Cc1cccc(C(=O)OC)c1 [2b, 1,3-Bis[4-(meta-methoxycarbonylbenzylethylamino)butyl]-6-methyluracil] | 19.5 µM | 120 mg/kg | 722 | 0.027 ± 0.003 µM | –
11 | CCN(CCCCCn1c(C)cc(=O)n(CCCCCN(CC)Cc2ccc(C(=O)OC)cc2)c1=O)Cc1ccc(C(=O)OC)cc1 [3b, 1,3-Bis[5-(para-methoxycarbonylbenzylethylamino)pentyl]-6-methyluracil] | 273 µM | 188 mg/kg | 355.5 | 0.768 ± 0.08 µM | –
12 | CCN(CCCCn1c(C)cc(=O)n(CCCCN(CC)Cc2ccc(C(=O)OC)cc2)c1=O)Cc1ccc(C(=O)OC)cc1 [3a, 1,3-Bis[4-(para-methoxycarbonylbenzylethylamino)butyl]-6-methyluracil] | 128 µM | 51 mg/kg | 39 | 3.3 ± 0.58 µM | –
13 | CCN(CCCn1c(C)cc(=O)n(CCCN(CC)Cc2cccc(C(=O)OC)c2)c1=O)Cc1cccc(C(=O)OC)c1 [2a, 1,3-Bis[3-(meta-methoxycarbonylbenzylethylamino)propyl]-6-methyluracil] | 16 µM | 170 mg/kg | 0.08 | 210 µM | –
14 | COc1cc2c(cc1OC)C(=O)C(CC1CCN(Cc3ccccc3)CC1)C2 (centres unmarked) [Donepezil, donepezil hydrochloride] | – | – | – | – | percentage of correct choices in T-maze [9]: 67.46 ± 2.35%; percentage of mice reaching the criterion of learning [9]: 50%; percentage of correct choices in T-maze [10]: 66.78 ± 2.62%; percentage of mice reaching the criterion of learning by day 14 [10]: 80%
15 | CCN(CCCCCn1c(C)cc(=O)n(CCCCCN(CC)Cc2ccccc2C#N)c1=O)Cc1ccccc1C#N [1c] | – | – | – | – | IC50 ([1]; ref [14]): 100 µM; LD50 ([2]; ref [14]): 138 mg/kg; IC50 ([3]; ref [14]): 0.0073 ± 0.0006 µM
